Data set [1] concerns 12 human primary cell systems. Description: BioMAP Diversity PLUS Panel. It counts as cell-based. As to conditions: for number of biological effects (biomarkers modulated) / number of effects in a non-B cell (non-BT) model: 1 μM; for immunomodulatory activities / tissue remodeling activities / inflammation-related activities / hemostasis/angiogenesis-related activities: biomarker level relative to vehicle control: ↑ increase, ↓ decrease; for inflammation-related activities: ↓↑ both; for hemostasis/angiogenesis-related activities: TF in the 3C model; for antiproliferative effects: cell types affected, concentrations (nM) in brackets; for detectable cytotoxicity: concentrations (nM): ibrutinib 3300, 1100, 370, 120, pirtobrutinib and fenebrutinib 1000, 330, 110, 37, spebrutinib 370, 120, 41, 14. As for the experimental part: BioMAP Diversity PLUS Panel (Eurofins Discovery, St. Charles, MO) is composed of 12 human primary cell cultures or cocultures. The systems and stimuli have been described previously. Adherent cells were added to 96-well plates, allowed to reach confluence, and incubated for 1 h with the indicated BTK inhibitor or assay control, all dissolved in 0.1% DMSO. The cells were then stimulated with cytokines, agonists, or growth factors and cultured for a minimum of 24 h at 37 °C in 5% CO2. Assay controls included DMSO-only (vehicle control), nonstimulated conditions (negative control), and a positive control test agent (colchicine at 1 μM).
Cell proliferation and viability were measured using 0.1% sulforhodamine B (SRB, Sigma–Aldrich) after fixation with 10% TCA, and reading wells at 560 nm for adherent cells, and using alamarBlue reduction (Bio-Rad) for suspension cells. These biomarkers were previously described by Shah and colleagues.
For each biomarker, the value obtained from the BTK inhibitor-treated samples was divided by the average of 8 DMSO-only controls from the same plate, yielding a ratio that was then transformed to the log10 scale. […] For cytotoxicity, we considered a decrease in the SRB readout greater than 50% (<−0.3 on the log10 scale) significant and excluded from the analysis the corresponding concentrations. The acceptance criteria and quality assurance of the BioMAP experiments have been previously described.

Another data set concerns BTK C481S in TMD8 cells. As to conditions: IC50 measured in TMD8 cells (not in vitro); read-out: average published IC50 for BTK C481S; cited from earlier work.
For data set [2], the system named is BTK C481S. The note with it: literature values; read-out: average published IC50 for BTK C481S; cited from earlier work.
Data set [3] deals with BTK C481S. The note with it: average of literature values; read-out: average published Kd for BTK C481S; cited from earlier work.

Structures are written as SMILES. pIC50, pKd: −log10 of the molar value. “Also recorded” adds a separate entry of the source.

By pIC50 is commonly meant the negative decadic logarithm of the IC50, by convention in mol/L. In general, pKd refers to the Kd on a negative log10 scale, so that one unit is a factor of ten.

`C[C@H]1CN(C2COC2)CCN1c1ccc(Nc2cc(-c3ccnc(N4CCn5c(cc6c5CC(C)(C)C6)C4=O)c3CO)cn(C)c2=O)nc1` [Fenebrutinib]: in data set [1], the “number of biological effects (biomarkers modulated)” value was determined as 8; the “number of effects in a non-B cell (non-BT) model” value is on record as 3; the immunomodulatory activities result is “↓ sIgG, sIL-2, sIL-6”; the tissue remodeling activities result is given as “none”. Further, in data set [1], the inflammation-related activities entry was “↓ sTNFα, IL-1α”; the hemostasis/angiogenesis-related activities result is on record as “↑ TF”; the antiproliferative effects entry is “B cells (1000, 330, 110, 37)”; the detectable cytotoxicity entry is “none”. In data set [1] (listed as fenebrutinib), the hemostasis/angiogenesis-related activities result is given as “increase in the production of Tissue Factor (TF)”. Further, the pIC50 in the data set with BTK C481S in TMD8 cells was 8.11.
On to `O=C(c1ccc(Oc2ccccc2)cc1Cl)c1c[nH]c2ncnc(N[C@@H]3CC[C@@H](CO)OC3)c12` [Nemtabrutinib], for which the negative logarithm of the IC50 (pIC50) in the data set with BTK C481S [2] was 9.41.
`COc1ccc(F)cc1C(=O)NCc1ccc(-c2nn([C@@H](C)C(F)(F)F)c(N)c2C(N)=O)cc1` [Pirtobrutinib]: in data set [1], the “number of biological effects (biomarkers modulated)” value came to 7; the “number of effects in a non-B cell (non-BT) model” value is recorded as 1; the immunomodulatory activities result is “↓ sIL-17A, sIL-17F, sIL-2, sIL-6”; the tissue remodeling activities entry is given as “none”. In data set [1], the inflammation-related activities result was “↓ sTNFα, IL-1α”; the hemostasis/angiogenesis-related activities result is recorded as “none”; the antiproliferative effects result is on record as “B cells (1000, 330, 110, 37)”; the detectable cytotoxicity entry was “none”. Further, the pKd at BTK C481S [3] is 8.59. For the same molecule, the negative-log IC50 (pIC50) in the data set with BTK C481S in TMD8 cells is 8.40.
Consider `C=CC(=O)Nc1cccc(Nc2nc(Nc3ccc(OCCOC)cc3)ncc2F)c1` [Spebrutinib], for which, in data set [1] (370 nM), the “number of biological effects” value amounted to 11 and the “number of effects not in the BT model” value is 6. In data set [1], the immunomodulatory activities entry is listed as “↓ sIL-17A, sIL-2, sIL-6”; the tissue remodeling activities entry is recorded as “↓ PAI-1, Col-I, Col-IV”; the inflammation-related activities entry was “↓ sTNFα”; the hemostasis/angiogenesis-related activities result is given as “none”. Moreover, in data set [1], the antiproliferative effects entry is given as “B cells (370, 120, 41, 14); endothelial cells (370); CASM cells (370); fibroblast cells (370)” and the detectable cytotoxicity entry is given as “none”. For the same molecule, in data set [1] (listed as spebrutinib), the tissue remodeling activities entry is on record as “decreased the activity of tissue remodeling biomarkers”; the antiproliferative effects result is “antiproliferative effects in endothelial (3C), coronary artery smooth muscle (CASM), and fibroblast (HDF3CGF) cells; also recorded: antiproliferative activity in CASM cells”.

The record behind these values is PMC11997881, “Comprehensive Characterization of Bruton’s Tyrosine Kinase Inhibitor Specificity, Potency, and Biological Effects: Insights into Covalent and Noncovalent Mechanistic Signatures” (ACS Pharmacology & Translational Science, 2025).
